Test results: ChEMBL document CHEMBL1201862, “PubChem BioAssay data set” (2004)
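Following 48 hours of exposure in 96-well plates, responses at five concentrations were used to interpolate endpoints linearly. Abbreviation: GI50, concentration required for 50% inhibition of growth.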 Active and inactive are the calls of the source. Cut-off read from the data, not from the text of the source: active = GI50 up to about 1.1 µM and inactive = higher.

Tests used:
Experiment in all cases: NCI tumour cell line growth inhibition, 48 h
RXF 393 = system: RXF 393
SNB-19 = system: SNB-19
KM12 = system: KM12
SK-MEL-28 = system: SK-MEL-28
EKVX = system: EKVX
OVCAR-3 = system: OVCAR-3
OVCAR-8 = system: OVCAR-8
NCI-H23 = system: NCI-H23
DU-145 = system: DU-145
UO-31 = system: UO-31
HCC 2998 = system: HCC 2998
CAKI-1 = system: CAKI-1
PC-3 = system: PC-3
SK-OV-3 = system: SK-OV-3
UACC-257 = system: UACC-257
Malme-3M = system: Malme-3M
SF-539 = system: SF-539
MCF7 = system: MCF7
HL-60 = system: HL-60
SNB-75 = system: SNB-75
SK-MEL-2 = system: SK-MEL-2
MDA-MB-435 = system: MDA-MB-435
SK-MEL-5 = system: SK-MEL-5
MDA-MB-231 = system: MDA-MB-231
NCI/ADR-RES = system: NCI/ADR-RES
HOP-92 = system: HOP-92
SN12C = system: SN12C
SF-268 = system: SF-268
SR = system: SR
LOX IMVI = system: LOX IMVI
RPMI-8226 = system: RPMI-8226
M14 = system: M14
BT-549 = system: BT-549
NCI-H226 = system: NCI-H226
UACC-62 = system: UACC-62
MOLT-4 = system: MOLT-4
A498 = system: A498
TK-10 = system: TK-10
NCI-H522 = system: NCI-H522
K562 = system: K562
HT-29 = system: HT-29
HCT-15 = system: HCT-15
SF-295 = system: SF-295
T47D = system: T47D
IGROV-1 = system: IGROV-1
CCRF-CEM = system: CCRF-CEM
ACHN = system: ACHN
786-0 = system: 786-0
Hs-578T = system: Hs-578T
MDA-N = system: MDA-N
SW-620 = system: SW-620
OVCAR-4 = system: OVCAR-4
HCT-116 = system: HCT-116
HOP-62 = system: HOP-62
A549 = system: A549
NCI-H460 = system: NCI-H460
U-251 = system: U-251
COLO 205 = system: COLO 205
OVCAR-5 = system: OVCAR-5

## CCN(CC)/[N+]([O-])=N/OCOC
RXF 393
  GI50: > 100 µM (inactive)
SNB-19
  GI50: > 100 µM (inactive)
KM12
  GI50: > 100 µM (inactive)
SK-MEL-28
  GI50: > 100 µM (inactive)
EKVX
  GI50: > 100 µM (inactive)
OVCAR-3
  GI50: > 100 µM (inactive)
OVCAR-8
  GI50: > 100 µM (inactive)
NCI-H23
  GI50: > 100 µM (inactive)
DU-145
  GI50: > 100 µM (inactive)
UO-31
  GI50: > 100 µM (inactive)
HCC 2998
  GI50: > 100 µM (inactive)
CAKI-1
  GI50: > 100 µM (inactive)
PC-3
  GI50: > 100 µM (inactive)
SK-OV-3
  GI50: > 100 µM (inactive)
UACC-257
  GI50: > 100 µM (inactive)
Malme-3M
  GI50: > 100 µM (inactive)
SF-539
  GI50: > 100 µM (inactive)
MCF7
  GI50: > 100 µM (inactive)
HL-60
  GI50: > 100 µM (inactive)
SNB-75
  GI50: > 100 µM (inactive)
SK-MEL-2
  GI50: > 100 µM (inactive)
MDA-MB-435
  GI50: > 100 µM (inactive)
SK-MEL-5
  GI50: > 100 µM (inactive)
MDA-MB-231
  GI50: > 100 µM (inactive)
NCI/ADR-RES
  GI50: > 100 µM (inactive)
HOP-92
  GI50: > 100 µM (inactive)
SN12C
  GI50: > 100 µM (inactive)
SF-268
  GI50: > 100 µM (inactive)
SR
  GI50: > 100 µM (inactive)
LOX IMVI
  GI50: > 100 µM (inactive)
RPMI-8226
  GI50: > 100 µM (inactive)
M14
  GI50: > 100 µM (inactive)
BT-549
  GI50: > 100 µM (inactive)
NCI-H226
  GI50: > 100 µM (inactive)
UACC-62
  GI50: > 100 µM (inactive)
MOLT-4
  GI50: > 100 µM (inactive)
A498
  GI50: > 100 µM (inactive)
TK-10
  GI50: > 100 µM (inactive)
NCI-H522
  GI50: > 100 µM (inactive)
K562
  GI50: > 100 µM (inactive)
HT-29
  GI50: > 100 µM (inactive)
HCT-15
  GI50: > 100 µM
SF-295
  GI50: > 100 µM (inactive)
T47D
  GI50: > 100 µM (inactive)
IGROV-1
  GI50: > 100 µM (inactive)
CCRF-CEM
  GI50: > 100 µM (inactive)
ACHN
  GI50: > 100 µM (inactive)
786-0
  GI50: > 100 µM (inactive)
Hs-578T
  GI50: > 100 µM (inactive)
MDA-N
  GI50: > 100 µM (inactive)
SW-620
  GI50: > 100 µM (inactive)
OVCAR-4
  GI50: > 100 µM (inactive)
HCT-116
  GI50: > 100 µM (inactive)
HOP-62
  GI50: > 100 µM (inactive)
A549
  GI50: > 100 µM (inactive)
NCI-H460
  GI50: > 100 µM (inactive)
U-251
  GI50: > 100 µM (inactive)
COLO 205
  GI50: > 100 µM (inactive)
OVCAR-5
  GI50: > 100 µM (inactive)

## O=[N+]([O-])C(=C(Sc1ccccc1)Sc1ccccc1)C(Cl)=C(Cl)Cl
RXF 393
  GI50: 0.413 µM (active)
SNB-19
  GI50: 10.6 µM (inactive)
KM12
  GI50: 2.44 µM (inactive)
SK-MEL-28
  GI50: 0.427 µM (active)
EKVX
  GI50: 2.05 µM (inactive)
OVCAR-3
  GI50: 0.373 µM (active)
OVCAR-8
  GI50: 0.23 µM (active)
NCI-H23
  GI50: 1.24 µM (inactive)
DU-145
  GI50: 1.11 µM (active)
UO-31
  GI50: 0.171 µM (active)
HCC 2998
  GI50: 2.39 µM (inactive)
CAKI-1
  GI50: 0.476 µM (active)
PC-3
  GI50: 2.26 µM (inactive)
SK-OV-3
  GI50: 10.1 µM (inactive)
UACC-257
  GI50: 0.323 µM (active)
Malme-3M
  GI50: 0.458 µM (active)
SF-539
  GI50: 2.13 µM (inactive)
MCF7
  GI50: 0.21 µM (active)
HL-60
  GI50: 0.141 µM (active)
SNB-75
  GI50: 4.54 µM (inactive)
SK-MEL-2
  GI50: 2.26 µM (inactive)
MDA-MB-435
  GI50: 0.334 µM (active)
SK-MEL-5
  GI50: 1.69 µM (inactive)
MDA-MB-231
  GI50: 0.188 µM (active)
NCI/ADR-RES
  GI50: 0.652 µM (active)
HOP-92
  GI50: 1.29 µM (inactive)
SN12C
  GI50: 0.65 µM (active)
SF-268
  GI50: 2 µM (inactive)
SR
  GI50: 0.0975 µM (active)
LOX IMVI
  GI50: 0.177 µM (active)
RPMI-8226
  GI50: 0.0292 µM (active)
M14
  GI50: 0.421 µM (active)
BT-549
  GI50: 1.18 µM (inactive)
NCI-H226
  GI50: 0.614 µM (active)
UACC-62
  GI50: 0.75 µM (active)
MOLT-4
  GI50: 0.051 µM (active)
A498
  GI50: 3.44 µM (inactive)
TK-10
  GI50: 0.0948 µM (active)
NCI-H522
  GI50: 0.0776 µM (active)
K562
  GI50: 0.0923 µM (active)
HT-29
  GI50: 0.123 µM (active)
HCT-15
  GI50: 0.319 µM
SF-295
  GI50: 11.9 µM (inactive)
T47D
  GI50: 0.278 µM (active)
IGROV-1
  GI50: 1.19 µM (inactive)
CCRF-CEM
  GI50: 0.0189 µM (active)
ACHN
  GI50: 0.248 µM (active)
786-0
  GI50: 0.0703 µM (active)
Hs-578T
  GI50: 3.32 µM (inactive)
MDA-N
  GI50: 0.23 µM (active)
SW-620
  GI50: < 0.0391 µM (active)
OVCAR-4
  GI50: 0.401 µM (active)
HCT-116
  GI50: 0.0597 µM (active)
HOP-62
  GI50: 1.91 µM (inactive)
A549
  GI50: 2.22 µM (inactive)
NCI-H460
  GI50: 5.74 µM (inactive)
U-251
  GI50: 1.53 µM (inactive)
COLO 205
  GI50: 0.157 µM (active)
OVCAR-5
  GI50: 0.486 µM (active)
